These results are taken from US7811577B2 (priority 2004, dated 2010).

“Also recorded” adds a separate entry of the source. Read-outs that look alike come from different tables or passages of the source. Numbered stars: 1 amine (or outer) side, 2 acyl side, 3 side chain; on linkers, the order of the positions; unused ones are H or OH. Bridge positions count the residues as written; N and C are the ends. Square brackets hold non-standard residues; d marks the D form. Ends that are not written are not given here. I, II: the chains in the order shown. * marks the point of attachment. Biotin = O=C1N[C@H]2[C@H](CS[C@H]2CCCCC(=O)*)N1; Ttds = O=C(CCC(=O)[*:2])NCCCOCCOCCOCCCN[*:1]; Acm = CC(=O)NC*

Series [1] is described as follows: Thermal denaturation (CD) in 2M guanidinium chloride. The conditions noted are these: for melting temperature / midpoint of thermal denaturation: in the presence of 2M guanidinium chloride.
Procedure: The stability of SZN17 was compared with that of IZN17 using thermal denaturation analysis performed in the presence of 2M guanidine hydrochloride (GdnHCl).
Another series relates to HIV-1 HXB2. The note with it: for anti-viral activity against HIV-1 HXB2, in words: single-cycle/single cell infectivity assay.
Series [2] deals with D5 IgG binding to biotinylated-IZN17. The series can be described thus: Biotinylated-IZN17/D5 IgG interaction assay, AlphaScreen.
Source text: The instrument records these emissions.
(§1) This test determines whether the covalently-stabilized, homotrimeric or heterotrimeric CC-chimeric N-peptides can preserve the structure of the internal, N-helix coiled-coil of gp41.
The test system of series [3] is D5 IgG binding to biotinylated 5-Helix. In words: Biotinylated 5-Helix/D5 IgG interaction (competition) assay, AlphaScreen.
Source text: The instrument records these emissions.
as §1
Another series deals with HIV-1 89.6. The series is classed as cell-based.
The nature of series [4]: Circular dichroism spectroscopy and thermal denaturation without denaturant. The note with it: for melting point (thermal denaturation): no denaturant. The class given is physicochemical. On the procedure:
The IZ-like scaffold in CCI10N17 (SEQ ID NO:20) comprises only the ten COOH-terminal residues of the “IZ” scaffold, with addition of the covalent trimerizing unit (CCGG (SEQ ID NO:28)) at the NH2-terminus of the peptide. The non-covalently-stabilized CCI10N17 coiled-coil (i.e., the coiled-coil formed under non-oxidizing conditions) was dissolved at neutral pH, and its secondary structure content was determined by circular dichroism spectroscopy (CD).
In order to understand the role of the covalent trimerizing unit (CCGG; SEQ ID NO:28), the CCI10N17 peptide was dissolved to permit air oxidation under the same conditions as previously shown for CCIZN17, to generate covalently-stabilized coiled-coil molecules, (CCI10N17)3. […] The trimer (CCI10N17)3 was analyzed by CD and denaturation studies for analysis of both its secondary structure content and stability. The helical content of this molecule was only 85% with a melting curve showing a low cooperatively profile and a low melting point of about 60° C.

Series [5] deals with D5-IgG binding to biotinylated IQN17. The series can be described thus: Competition of D5-IgG binding to biotinylated IQN17, AlphaScreen.
Series [6] has as its system D5 IgG / biotinylated-IZN17. In words: IC50 (nM). From the text:
Table printed on a drawing sheet, FIG. 6
Head of the field: IC50 (nM)
Wildtype IZN17 peptide was included as a positive control, previously shown to inhibit D5 binding in this assay.
First copying reader's note: The table stands beside a dose-response plot (Average Alpha Counts vs [Peptide]), which is not copied.

[7] abbreviates: non-covalently-stabilized coiled-coil, neutral pH, 15 μM.

With “IKKEIEAIKKEQEAIKKKIEAIEKLLaLTVWGIKQLQARIL (Ac-IKKEIEAIKKEQEAIKKKIEAIEKLLALTVWGIKQLQARIL-NH2) [IZN17A3]”, in series [1], the “Tm (2M GdnHCl), midpoint of thermal denaturation” value (from here on “Tm (2M GdnHCl), midpoint”) stood at 64.7 °C.

As to “IKKEIEAIKKEQEAIKKKIEAIEKaLQLTVWGIKQLQARIL (Ac-IKKEIEAIKKEQEAIKKKIEAIEKALQLTVWGIKQLQARIL-NH2) [IZN17A1]”, in series [1], the “Tm (2M GdnHCl), midpoint” value stood at 51.7 °C.

With “CCGGIEKKIEEIEKKIEEIEKKIEEIEKLLQLTVWGIKQLQARIL [CCEZN17]”, in the series with HIV-1 HXB2, the “anti-viral activity against HIV-1 HXB2, in words” value is recorded as “lack of anti-viral activity”. Further, in series [2], the “D5 IgG binding in bio-IZN17/D5 IgG interaction assay, in words” value is “interact with D5 IgG”. For the same molecule, the “D5 IgG binding in bio-5-Helix/D5 IgG interaction assay, in words” value in series [3] is on record as “interact with D5 IgG”.

As for enfuvirtide, the IC50 in the series on HIV-1 89.6 (HIV strain 89.6, read-out: Anti-viral activity, IC50) turned out to be 29 nM; in the series with HIV-1 HXB2 (read-out: Anti-viral activity, IC50, HIV strain HXB2), 5.3 nM; with HIV-1 BaL (read-out: Anti-viral activity, IC50, HIV strain BaL), 2.4 nM.

Consider “(CCS17N17)3: covalent disulfide trimer of CCS17N17 (CCGGIEKKIEAIEKKIEAIEKLLQLTVWGIKQLQARIL; also: disulfide-linked homotrimer)”, for which, in series [1], the “melting temperature / midpoint of thermal denaturation” value (“melting temperature / midpoint” for short) is “above 90 °C”.

Regarding “IEKKIEEIEKKIEEIEKKIEEIEKLLQLTVWGIKQLQARIL [EZN17]”, in [4], the “helical content by circular dichroism” value is “fully helical”. The “D5 IgG binding in bio-IZN17/D5 IgG interaction assay, in words” value in series [2] was “strongly binds to D5 IgG; also recorded: interact with D5 IgG; also recorded: affinity comparable to IZN17”. Also, in series [3], the “D5 IgG binding in bio-5-Helix/D5 IgG interaction assay, in words” value is reported as “interact with D5 IgG”.

As for “(CCIZN11IZ)3: covalent disulfide trimer of CCIZN11IZ (CCGGIKKEIEAIKKEQEAIKKKIEAIEKLLQLTVWGIKQIKKEIEAI; also: disulfide-linked homotrimer)”, the IC50 with HIV-1 HXB2 (read-out: IC50 against HIV-1 HXB2, single-cycle infectivity assay, HXB2) was 0.3 nM. In series [3], the “D5 IgG binding in bio-5-Helix/D5 IgG interaction assay, in words” value was “binds D5 IgG”.

For “Biotin-GGIKKEIEAIKKEQEAIKKKIEAIEKEIEAQQHLLQLTVWGIKQLQARIL-NH2 [Biotin-IZN23]”, in the series on HIV-1 HXB2 (HXB2), the midpoint of inhibition, the IC50, lay at 2.17 nM.

Take “IEKKIEAIEKKIEAIEKKIEAIEKLLQLTVWGIKQLQARIL [SZN17]”: in the series with HIV-1 HXB2 (read-out: IC50 in single-cell infectivity assay, against HIV BXB2 (so in the source), unit inferred), the IC50 worked out at 1.5 nM. In addition, in [1], the “melting temperature / midpoint” value was more than 90 °C.

Take “Ac-LLQLTVWGIKQLQARILAIKKEIEAIKKEQEAIKKKIEAI-NH2 (C-terminus assumed) [N17IZ]”: inhibition in the series on HIV-1 HXB2 (HXB2) was half-maximal at 800 nM (IC50).

Regarding “IKKEIEAIKKEQEAIKKKIEAIEKLLQaTVWGIKQLQARIL (Ac-IKKEIEAIKKEQEAIKKKIEAIEKLLQATVWGIKQLQARIL-NH2) [IZN17A4]”, in [1], the “Tm (2M GdnHCl), midpoint” value was 58.2 °C. Also, in [5], the “competition of D5-IgG binding to biotinylated IQN17, in words” value (from here on “competition of D5-IgG binding”) is listed as “completely abolish binding of D5”.

For the molecule “IKKEIEAIKKEQEAIKKKIEAIEKLLQLTVWGIKaLQARIL (Ac-IKKEIEAIKKEQEAIKKKIEAIEKLLQLTVWGIKALQARIL-NH2; not fully specified (residue 35); printed as IKKEIEAIKKEQEAIKKKIEAIEKLLQLTVWGIKaLQARIL) [IZN17A11]”, the “Tm (2M GdnHCl), midpoint” value in series [1] is 66.0 °C.

For “I: Ac-CCGGIKKKIEAIEKLLQLTVWGIKQLQARIL-NH2 / II: Ac-CCGGIKKKIEAIEKLLQLTVWGIKQLQARIL-NH2 / III: Ac-CCGGIKKKIEAIEKLLQLTVWGIKQLQARIL-NH2 (disulfide I:1-III:2, I:2-II:2, II:1-III:1; C-terminus assumed) [(CCI10N17)3]”, in series [4], the “helical content by circular dichroism” value came to 85% and the “melting point (thermal denaturation)” value is “about 60 °C”. For the same molecule, the “melting point (thermal denaturation)” value in series [4] (listed as (CC110N17)3) came out at 60 °C. For the same molecule, in the series on HIV-1 HXB2, the “fold less potent (IC50) than (CCIZN17)3” value is “approximately 150 fold” and the “anti-viral activity against HIV-1 HXB2, in words” value is on record as “less potent in anti-viral activity assays”. For the same molecule, in the series with HIV-1 HXB2 (HXB2), half-maximal inhibition (IC50) was put at 24 nM and the “fold reduction in anti-viral activity relative to IZN17” value is given as “approximately 10 fold”. In addition, the “D5 IgG binding in bio-IZN17/D5 IgG interaction assay, in words” value in [2] is on record as “somewhat less effective than 112N7; also recorded: clearly inhibits”. Further, the “D5 IgG binding in bio-5-Helix/D5 IgG interaction assay, in words” value in series [3] is listed as “competes for binding of D5 IgG to Biotin-5-Helix”.

“ac-C(Acm)(thioE10N17)3: one ac-C(Acm)Ttds-CCE10N17 ligated via two thioether bonds to two acetyl-GGGE10N17 chains (peptide 1 {CH2CO}-C(Acm)[Ttds]CCIEEKIEEIEELLQLTVWGIKQLQARIL; peptide 2 Ac-GGGIEEKIEEIEELLQLTVWGIKQLQARIL; thioether I:N-I:3, I:N-I:4; numbers in words are those of the source; also: chain 2 present twice, each copy ligated via thioether to one of the two Cys of chain 1)”: the “anti-viral activity against HIV-1 HXB2, in words” value in the series on HIV-1 HXB2 is given as “much lower potencies”. Also, the “melting temperature / midpoint” value in series [1] was “above 90 °C”.

With “CCGGIKKEIEAIKKEQEAIKKKIEAIEKLLQLTVWGIKALAAAIA [CCIZN17Ala4]”, in the series on HIV-1 HXB2, the “anti-viral activity against HIV-1 HXB2, in words” value is “retain anti-viral activity”.

Regarding “(CCS10N17)3: covalent disulfide trimer of CCS10N17 (CCGGIEKKIEAIEKLLQLTVWGIKQLQARIL; also: disulfide-linked homotrimer)”, the “anti-viral activity against HIV-1 HXB2, in words” value in the series on HIV-1 HXB2 is on record as “much lower potencies”.

Turning to “IKKEIEAIKKEQEAIKKKIEAIEKLLQLTVaGIKQLQARIL (Ac-IKKEIEAIKKEQEAIKKKIEAIEKLLQLTVAGIKQLQARIL-NH2) [IZN17A7]”, the “Tm (2M GdnHCl), midpoint” value in series [1] came out at 61.4 °C. Further, the “competition of D5-IgG binding” value in [5] was “completely abolish binding of D5”.

As to “IKKEIEAIKKEQEATKKKIEAIEKLLQLTVWGIKQLaARIL [IZN17A13]”, the “Tm (2M GdnHCl), midpoint” value in series [1] was found to be 71.5 °C.

Take “IEKKIEEIEKKIEEIEKKIEEIEKLLQLTVWGIKQLQARIL [EZN17, EZ scaffold fused to N17]”: in series [6], it took 18.3 nM to reach half-maximal inhibition (IC50).

On to “IKKEIEAIKKEQEAIKKKIEAIEKLLQLTVWGIKQLQAaIL (Ac-IKKEIEAIKKEQEAIKKKIEAIEKLLQLTVWGIKQLQAAIL-NH2; not fully specified (residue 38); printed as IKKEIEAIKKEQEAIKKKIEAIEKLLQLTVWGIKQLQAaIL) [IZN17A15]”, for which the “Tm (2M GdnHCl), midpoint” value in series [1] turned out to be 77.2 °C.

Regarding “IKKEIEAIKKEQEAIKKKIEAIEKLLQLTVWGIKQLQARIa (Ac-IKKEIEAIKKEQEAIKKKIEAIEKLLQLTVWGIKQLQARIA-NH2; not fully specified (residue 41)) [IZN17A17]”, the “Tm (2M GdnHCl), midpoint” value in [1] came out at 60.6 °C.

In the case of “CCGGIKKKIEAIEKLLQLTVWGIKQLQARIL [CCI10N17]”, the “helical content by circular dichroism” value in [4] (setting [7]) was 61%. Also, the “anti-viral activity against HIV-1 HXB2, in words” value with HIV-1 HXB2 is “less potent anti-virals”.

As to “IKKKIEAIEKLLQLTVWGIKQLQARILGGCC [I10N17CC]”, the “anti-viral activity against HIV-1 HXB2, in words” value in the series on HIV-1 HXB2 is recorded as “less potent anti-virals”.

For the molecule “Ac-IKKEIEAIKKEQEAIKKKIEAIEKLLQLTVWGIKQLQARIL-NH2 [IZN17, reference compound]”, the “anti-viral activity against HIV isolate 89.6, in words” value in the series on HIV-1 89.6 was “completely resistant towards IZN17”. In addition, in the series on HIV-1 89.6 (HIV strain 89.6), the “Anti-viral activity, IC50” value is “No”. For the same molecule, the “helical content by circular dichroism” value in series [4] (setting [7]) was “fully helical”. The IC50 in the series with HIV-1 HXB2 (HXB2) is 1.7 nM; with HIV-1 BaL (BaL), 3.2 nM. The “Tm (2M GdnHCl), midpoint” value in series [1] was determined as 61.5 °C. In series [1], the “melting temperature / midpoint” value was determined as 61.5 °C.

As to “IKKEIEAIKKEQEAIKKKIEAIEKLLQLTaWGIKQLQARIL (Ac-IKKEIEAIKKEQEAIKKKIEAIEKLLQLTAWGIKQLQARIL-NH2) [IZN17A6]”, the “Tm (2M GdnHCl), midpoint” value in [1] was found to be 56.4 °C.

On to “IKKEIEAIKKEQEAIKKKIEAIEKLLQLTVWGIaQLQARIL (Ac-IKKEIEAIKKEQEAIKKKIEAIEKLLQLTVWGIAQLQARIL-NH2) [IZN17A10]”, for which the “Tm (2M GdnHCl), midpoint” value in [1] came to 68.1 °C. In addition, in [5], the “competition of D5-IgG binding” value was “completely abolish binding of D5”.

B1: ac-C(Acm)(thioIZN17)3: one ac-C(Acm)Ttds-CCIZN17 chain ligated via two thioether bonds to two acetyl-GGGIZN17 chains (peptide)
peptide 1: CCCGGIKKEIEAIKKEQEAIKKKIEAIEKLLQLTVWGIKQLQARIL
peptide 2: GGGIKKEIEAIKKEQEAIKKKIEAIEKLLQLTVWGIKQLQARIL
Turning to B1, the “anti-viral activity against HIV-1 HXB2, in words” value in the series with HIV-1 HXB2 is on record as “comparable antiviral activity to (CCIZN17)3”.
